The values below come from patent US8148577B2, “Polyamines useful as anti-parasitic and anti-cancer therapeutics and as lysine-specific demethylase inhibitors” (The Johns Hopkins University, priority 2005, dated 2012).

For orientation: pIC50 means the negative decadic logarithm of the IC50, by convention in mol/L.

The test system of assay [1] is H157 (non-small cell lung carcinoma) cells. The experiment in a line: 96 hr MTS dose response experiment in H157 cells. The class given is cell-based, human. The note with it: a range means IC50 lies between the two tested concentrations. As for the experimental part:
(§1) MTS dose response experiments in H157, H82, and A549 cells following a 96 hr exposure with select compounds were performed. MTS is a standard colorimetric assay used for measuring metabolic activity in cells. MTS experiments were performed by CellTiter 96® AQueuos One Solution Cell Proliferation Assay from Promega Corporation. Briefly, the cells were seeded at 3000 cells/well on a 96 well tissue culture plate containing 100 ul of medium/well and allowed to attach overnight. The medium was then aspirated and replaced with 100 ul of fresh medium containing the appropriate concentration of the compound being tested and incubated for 96 hrs at 37° C. and 5% CO2. Compounds are routinely tested at concentrations ranging from 0.1 micromolar to 50 micromolar. Wells not containing the test compound were present and used as a control. Following treatment, 20 ul of MTS reagent was added to each well and incubated at 37° C. for 1.5 hrs. The absorbance of each well was then measured at 490 nm and used to determine the metabolic activity of the cells in the presence of the test compound, relative to the control. IC50 values for the test compounds were extracted based on the results.
(§2) Note that the results for a 72 hr exposure in addition to the 96 hr exposure are shown for compound 49-TDW-29C in the H157 cells. […] FIG. 1 depicts the results of a 96 hr MTS dose response experiments for compound 46-TDW-23c in H157, A549, H82 and Beas2B cells. FIG. 2 depicts the results of a 96 hr MTS dose response experiments for compound 49-TDW-9 in H157, A549, H82 and Beas2B cells. FIG. 3 depicts the results of a 96 hr MTS dose response experiments for compound 42-TDW-21c in H157, A549, H82 and Beas2B cells. FIG. 4 depicts the results of a 96 hr MTS dose response experiments for compound 46-TDW-19c in H157, A549, H82 and Beas2B cells. FIG. 5 depicts the results of a 96 hr MTS dose response experiments for compound 49-TDW-17c in H157, A549, H82 and Beas2B cells. FIG. 6 depicts the results of a 96 hr MTS dose response experiments for compound 40-TDW-37 in H157, A549, H82 and Beas2B cells. FIG. 7 depicts the results of a 96 hr MTS dose response experiments for compound 42-TDW-4 in H157, A549, H82 and Beas2B cells. FIG. 8 depicts the results of a 96 hr MTS dose response experiments for compound 49-TDW-29c in H157, A549, H82 and Beas2B cells. FIG. 9 depicts the results of a 96 hr MTS dose response experiments for compound 49-TDW-32c in H157, A549, H82 and Beas2B cells. FIG. 10 depicts the results of a 96 hr MTS dose response experiments for compound 46-TDW-35c in H157, A549, H82 and Beas2B cells. FIG. 11 depicts the results of a 96 hr MTS dose response experiments for compound 39-TDW-3 in H157, A549, and H82 cells. FIG. 12 depicts the results of a 96 hr MTS dose response experiments for compound 39-TDW-12c in […], and A549 cells. FIG. 13 depicts the results of a 96 hr MTS dose response experiments for compound 39-TDW-20c in H157, and H82 cells. FIG. 14 depicts the results of a 96 hr MTS dose response experiments for compounds 39-TDw-47c and 39-TDW-43 in H157 cells. FIG. 15 depicts the results of a 96 hr MTS dose response experiments for compounds 42-TDW-9, 42-TDW-4c/6, 40-TDW-35, 42-TDW-38 and BENSpm in H157 cells. FIG. 16 depicts the results of a 96 hr MTS dose response experiments for compounds 46-TDW-34c, 42-TDW-12, 40-TDW-48, 46-TDW-44c and BENSpm in H157 cells. FIG. 17 depicts the results of a 96 hr MTS dose response experiments for compounds 42-TDW-20c, 46-TDW-22, 46-TDW-39, 49-TDW-29c and BENSpm in H157 cells. FIG. 18 depicts the results of a 96 hr MTS dose response experiments for compounds 39-TDW-43, 42-TDW-48c, 46-TDW-9, 46-TDW-23c and BENSpm in H157 cells. FIG. 19 depicts the results of a 96 hr MTS dose response experiments for compounds 42-TDW-35c, 46-TDW-44 and BENSpm in H157 cells.

Another assay has as its system A549 cells. The experiment in a line: 96 hr MTS dose response experiments in A549 cells. The settings on record: Homo sapiens, 96 hr exposure. In kind it is cell-based. As for the experimental part: as §1
Note that the results for a 72 hr exposure in addition to the 96 hr exposure are shown for compound 49-TDW-29C in the H157 cells. […]

Assay [2] concerns H82 (small lung cell carcinoma) cells. The experiment in a line: 96 hr MTS dose response experiments in H82 cells. In kind it is cell-based, human. As for the experimental part:
as §1, §2

Assay [3] has as its system H157 (non-small cell lung carcinoma) cells. Put plainly: Polyamine levels in H157 cells following treatment. The class given is cell-based, human. The note with it: 24 hr. As for the experimental part:
(§3) Putrescine, spermidine, and spermine polyamine levels in H157 and H82 cells following exposure to select compounds were performed. Polyamine levels were determined using the precolumn dansylation labeling, reverse-phase high-pressure liquid chromatography method as described by Kabra et al., J. Chromotography, 380:19 (1986). The results are show in Tables 6 and 11 for H157 and H82 cells respectively. The compound identifier, treatment concentration, observed polyamine level, and exposure time are listed in columns 1, 2, 3, and 4 respectively. Polyamine levels are reported as increased (inc), decrease (dec), or no change (N/C). In some case the specific levels of putrescine, spermidine, and/or spermine are listed.

The subject of the next assay is H82 cells. Put plainly: Polyamine levels in H82 cells following treatment. The class given is cell-based, human. The note with it: 24 hr. As for the experimental part: as §3
In assay [4] the test system is P19 embryonal carcinoma cells. The note with it: P19 embryonal carcinoma cells treated; cited from earlier work.
Setting [5] is: Homo sapiens, NCI-H157, 96 hr exposure.
Setting [6] is: Homo sapiens, NCI-H82, 96 hr exposure.
Where [7] appears, read: 10 uM, inc = increased, dec = decrease, N/C = no change.

pIC50: −log10 of the molar value.

Consider `c1ccc(-c2ccccc2CNCCCNCCCNCCCNCc2ccccc2-c2ccccc2)cc1` [39-TDW-3], for which the pIC50 is 5.57 to 6.28 in assay [1] (setting [5]), 5.00 to 6.00 with A549 cells and 5.57 to 6.28 in assay [2] (setting [6]).

Turning to `CCNCCCNCCCNCCCNCc1ccccc1-c1ccccc1` [39-TDW-20c], the figures for the pIC50 (in assay [1] (setting [5]); with A549 cells; in assay [2] (setting [6])) were 5.26 to 5.56, below 5.00 and 5.26 to 5.56, respectively.

As to `CC(C)(C)CCNCCCNCCCNCCCNCC(F)(F)F` [40-TDW-19], the negative logarithm of the IC50 (pIC50) is 4.58 to 5.28 in assay [1] (setting [5]) and 5.00 to 5.30 in assay [2] (setting [6]).

As to `CCNCCCNCCCNCCCNCCCCc1cc2cccc3ccc4cccc1c4c32` [40-TDW-23], the pIC50 in assay [1] (96 hr exposure) and in assay [2] (96 hr exposure) was 4.30 to 5.00 in each case.

`CCSCCNCCCNCCCNCCCNCCSCC` [49-TDW-15]: the pIC50 in assay [1] (96 hr exposure) was 6.00 to 6.30; in assay [2] (96 hr exposure), 4.30 to 5.00.

In the case of `C=C(C)NCCCNCCCNCCCN` [ZQW-35-7c], the “Polyamine Level” value in assay [3] (5 uM) was “slight dec”; in assay [3] (setting [7]), “dec”; in the assay on H82 cells (10 uM) it was “N/C”. In addition, the pIC50 in assay [1] (setting [5]) is below 5.00.

In the case of `C=C(C)NCCCNCCCNCCCNC(=C)C` [ZQW-35-8], the “Polyamine Level” value is listed as “N/C” in assay [3] (setting [7]) and “N/C, slight” with H82 cells (10 uM). Also, the pIC50 in assay [1] (setting [5]) was below 5.00.

In the case of `C=C(C)NCCCNCCCNCCCNCC` [ZQW-35-8c], the “Polyamine Level” value is on record as “dec” in assay [3] (setting [7]) and “N/C, slight” in the assay on H82 cells (10 uM). Further, the “Polyamine Level, spd, spm” value in assay [3] (spermidine and spermine, 10 uM) stood at 1 g dec. This compound also gave a pIC50 in assay [1] (setting [5]) of 5.00 to 6.00.

For `CC1(C)C2CCC(CNCCCNCCCNCCCNCC3CCC4CC3C4(C)C)C1C2` (stereo not drawn) [ZQW-35], in assay [3] (4 uM), the “Polyamine Level” value is reported as “N/C”. For the same compound, the pIC50 in assay [1] (setting [5]) was 5.00 to 6.00; in assay [2] (setting [6]), above 6.00.

Turning to `CC1(C)C2CCC(CNCCCNCCCNCCCN)C1C2` (stereo not drawn) [ZQW-35c], the pIC50 in assay [1] (setting [5]) and in assay [2] (setting [6]) was 5.00 to 6.00 throughout.

Consider `CCNCCCNCCCNCCCNCC1CCC2CC1C2(C)C` (stereo not drawn) [ZQW-36], for which the “Polyamine Level” value in assay [3] (setting [7]) is “slight dec”. In addition, the “Polyamine Level, Spm” value in assay [3] (spermine (Spm), 10 uM) is “inc”. The pIC50 in assay [1] (setting [5]) and in assay [2] (setting [6]) was 5.00 to 6.00 each time.

Take `C=C(CNCCCNCC)CNCCCNCC` [ZQW-44]: the “Polyamine Level” value in assay [3] (setting [7]) is reported as “N/C”; with H82 cells (50 uM), “inc”. Also, in assay [1] (setting [5]), the pIC50 is below 4.89.

Regarding `C=C(CNCC)CNCCCNCCCNCC` [ZQW-46], the “Polyamine Level” value in assay [3] (setting [7]) is reported as “N/C”; in the assay with H82 cells (5-uM) it was “dec”. Also, the pIC50 in assay [1] (setting [5]) is 4.89.

Regarding `N[C@@H]1C[C@H]1c1ccccc1` [tranylcypromine, (1R,2S)-2-phenylcyclopropan-1-amine], in assay [4], the “effect on transcription of Egr1 and Oct4 genes” value is “transcriptional de-repression of the Egr1 and Oct4 genes”.
